Laboratory results from PubChem BioAssay AID2060882 (Molecular Pharmacology Branch, DTP, NCI, 2025).
Values belong to the compound of their own block, whether it stands above or below them.

Tested on: 898857-211-R-J1-PDC complex spheroids, growth % test/control
Assay: Anticancer human tumor 898857-211-R-J1-PDC patient-derived melanoma cell line growth inhibition [RAS]
Details: for IC50: curve of first compound; for viability, T/C: stronger effect = lower value
From the text: RAS pathway inhibitors in Combinations in Complex Spheroids
A high-throughput screen of multi-cell type tumor spheroids was designed to identify active combinations of RAS pathway inhibitors and targeted small molecules. Complex spheroids include a stromal component modeled by human endothelial cells (HUVEC) and fibroblasts modeled by human mesenchymal stem cells (MSCs). The concentration ranges selected for each drug and investigational agent were based upon clinically achievable concentrations if the clinical Cmax of the agent was known.
Compounds. The drugs and investigational agents: abemaciclib (NSC768073), cobimetinib (NSC768068), divarasib (GDC6063, NSC841802), docetaxel (NSC628503), GDC-1971 (RLY-1971, NSC841576), gemcitabine (NSC613327), inavolisib (NSC800729), ipatasertib (NSC767898), KB-0742 (NSC834161), MRTX-1133 (NSC836407), osimertinib (NSC779217), RMC-4630 (NSC839698), RMC-6236 (NSC851965), RMC-6291 (NSC852671), Ro-3306 (NSC812927), sapanisertib (NSC764658), SN-38 (NSC673596), staurosporine (NSC755774), SY5609 (NSC837396), and tovorafenib (DAY101, NSC766906), were obtained from the National Cancer Institute (NCI) Developmental Therapeutics Program Chemical Repository. The FDA-approved anticancer drug set is available from the NCI Developmental Therapeutics Program. […] The stock solutions were prepared in dimethyl sulfoxide (DMSO, Sigma-Aldrich, St. Louis, MO, cat. D2650) at 800-fold the tested concentration and stored at -70 degrees C prior to their use. All drugs and investigational agents were tested over a range starting from a high concentration at or near the clinical Cmax and decreasing in half-log increments. If the clinical Cmax for an agent had not been determined, the highest concentration tested was 10 microM.
Cell Culture. All cells were maintained in an incubator at 37 degrees C and 5% CO2 with 95% humidity. The PDC lines were cultured according to standard operating procedures established by the NCI PDMR. All PDCs were thawed and cultured in Matrigel-coated flasks prepared with a working solution of 1X Ham's F-12 nutrient mix, without supplementation (Invitrogen, Waltham, MA, cat. 11765054), 100 U/mL penicillin-streptomycin (Invitrogen, cat. 15140122), and 2.5% Matrigel (Corning Inc., Corning, NY, cat. 354248) for the first three passages. The 362531-283-R-J2-PDC and 782815-120-R-J1-PDC lines were cultured in 6C/Colon 1B media, which includes advanced DMEM/F-12 (Thermo Fisher Scientific, cat. 12634028), 10 mM HEPES (Thermo Fisher Scientific, cat. 15630080), 1X GlutaMAX supplement (Thermo Fisher Scientific, cat. 35050061), 0.1 mg/mL primocin (InvivoGen, San Diego, CA, cat. ant-pm-2), 10% defined fetal bovine serum, heat inactivated (HyClone Laboratories Inc., Logan, UT, cat. SH30070.03HI), 50% L-WRN conditioned media (ATCC, cat. CRL-3276), 1.25 mM N-Acetyl-L-cysteine (Sigma-Aldrich, cat. A9165), 10 mM nicotinamide (Sigma-Aldrich, cat. N0636), 1X B-27 supplement (Thermo Fisher Scientific, cat. 17504044), 1X N-2 supplement (Thermo Fisher Scientific, cat. 17502048), 50 ng/mL human EGF (Thermo Fisher Scientific, cat. PHG0311), and 10 microM Y-27632 dihydrochloride (Tocris Bioscience, cat. 1254). The K12877-001-R-J1-PDC line was cultured in 6I media, which includes all 6C/Colon 1B media plus 10 ng/mL human FGF-10 (PeproTech, cat. 100-26), 1 ng/mL human FGF-2 (PeproTech, cat. 100-18B), 1 µM prostaglandin E2 (Tocris Bioscience, cat. 2296), […] hydrocortisone (Sigma-Aldrich, cat. H4001), and […] bovine insulin (Sigma-Aldrich, cat. I6634). The K86415-001-R-J1-PDC line was cultured in 6D media, which includes all 6C/Colon 1B media components minus the L-WRN conditioned media. The 485176-168-R4-J1-PDC was cultured in PANC media, which includes all 6C/Colon 1B media plus 100 ng/mL human FGF-10 (PeproTech, cat. 100-26), 500 nM SB-431542 (Selleckchem, cat. S1067), and 10 nM gastrin (Tocris Bioscience, cat. 3006). […]

[1] = second compound 0.0316 µM, first compound 0.0316 µM
[2] = second compound 0.0316 µM, first compound 0.1 µM
[3] = second compound 0.0316 µM, first compound 0.316 µM
[4] = second compound 0.0316 µM, first compound 1 µM
[5] = second compound 0.0316 µM, first compound 3.16 µM
[6] = second compound 0.0316 µM, first compound 10 µM
[7] = second compound 0.1 µM, first compound 0.0316 µM
[8] = second compound 0.1 µM, first compound 0.1 µM
[9] = second compound 0.1 µM, first compound 0.316 µM
[10] = second compound 0.1 µM, first compound 1 µM
[11] = second compound 0.1 µM, first compound 3.16 µM
[12] = second compound 0.1 µM, first compound 10 µM
[13] = second compound 0.316 µM, first compound 0.0316 µM
[14] = second compound 0.316 µM, first compound 0.1 µM
[15] = second compound 0.316 µM, first compound 0.316 µM
[16] = second compound 0.316 µM, first compound 1 µM
[17] = second compound 0.316 µM, first compound 3.16 µM
[18] = second compound 0.316 µM, first compound 10 µM
[19] = second compound 1 µM, first compound 0.0316 µM
[20] = second compound 1 µM, first compound 0.1 µM
[21] = second compound 1 µM, first compound 0.316 µM
[22] = second compound 1 µM, first compound 1 µM
[23] = second compound 1 µM, first compound 3.16 µM
[24] = second compound 1 µM, first compound 10 µM
[25] = second compound 3.16 µM, first compound 0.0316 µM
[26] = second compound 3.16 µM, first compound 0.1 µM
[27] = second compound 3.16 µM, first compound 0.316 µM
[28] = second compound 3.16 µM, first compound 1 µM
[29] = second compound 3.16 µM, first compound 3.16 µM
[30] = second compound 3.16 µM, first compound 10 µM
[31] = second compound 10 µM, first compound 0.0316 µM
[32] = second compound 10 µM, first compound 0.1 µM
[33] = second compound 10 µM, first compound 0.316 µM
[34] = second compound 10 µM, first compound 1 µM
[35] = second compound 10 µM, first compound 3.16 µM
[36] = second compound 10 µM, first compound 10 µM
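Also: spheroids exposed to compound for seven days before readout.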
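For viability, T/C in this document: 100% = DMSO vehicle control wells.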

IC50 (second compound 0.0316 µM): > 10000 nM
IC50 (second compound 0.1 µM): > 10000 nM
IC50 (second compound 0.316 µM): > 10000 nM
IC50 (second compound 1 µM): > 10000 nM
IC50 (second compound 3.16 µM): > 10000 nM
IC50 (second compound 10 µM): 132 nM
Compound: CC(C)NCC(C(=O)N1CCN(c2ncnc3c2C(C)CC3O)CC1)c1ccc(Cl)cc1 (stereo unspecified) + C#Cc1c(F)ccc2cc(O)cc(-c3ncc4c(N5CC6CCC(C5)N6)nc(OCC56CCCN5CC(F)C6)nc4c3F)c12
viability, T/C [1]: 100%
viability, T/C [2]: 89.4%
viability, T/C [3]: 103%
viability, T/C [4]: 80.8%
viability, T/C [5]: 73.6%
viability, T/C [6]: 67.6%
viability, T/C [7]: 116%
viability, T/C [8]: 104%
viability, T/C [9]: 98.5%
viability, T/C [10]: 88.2%
viability, T/C [11]: 85.2%
viability, T/C [12]: 61.4%
viability, T/C [13]: 101%
viability, T/C [14]: 103%
viability, T/C [15]: 104%
viability, T/C [16]: 83.4%
viability, T/C [17]: 70.8%
viability, T/C [18]: 55.2%
viability, T/C [19]: 99.9%
viability, T/C [20]: 95.8%
viability, T/C [21]: 104%
viability, T/C [22]: 92%
viability, T/C [23]: 74.7%
viability, T/C [24]: 61%
viability, T/C [25]: 102%
viability, T/C [26]: 95.9%
viability, T/C [27]: 109%
viability, T/C [28]: 92.7%
viability, T/C [29]: 78.1%
viability, T/C [30]: 52%
viability, T/C [31]: 54.3%
viability, T/C [32]: 59.4%
viability, T/C [33]: 38.5%
viability, T/C [34]: 33.8%
viability, T/C [35]: 27.5%
viability, T/C [36]: 8.24%

IC50 (second compound 0.0316 µM): 32.6 nM
IC50 (second compound 0.1 µM): 38.2 nM
IC50 (second compound 0.316 µM): 37.7 nM
IC50 (second compound 1 µM): 37.3 nM
IC50 (second compound 3.16 µM): 39.6 nM
IC50 (second compound 10 µM): 1.06 nM
Compound: CC(C)n1nc(-c2ccc3oc(N)nc3c2)c2c(N)ncnc21 + C#Cc1c(F)ccc2cc(O)cc(-c3ncc4c(N5CC6CCC(C5)N6)nc(OCC56CCCN5CC(F)C6)nc4c3F)c12
viability, T/C (second compound 0.0316 µM, first compound 0.000316 µM): 108%
viability, T/C (second compound 0.0316 µM, first compound 0.001 µM): 92.3%
viability, T/C (second compound 0.0316 µM, first compound 0.00316 µM): 101%
viability, T/C (second compound 0.0316 µM, first compound 0.01 µM): 81.8%
viability, T/C [1]: 50.9%
viability, T/C [2]: 24%
viability, T/C (second compound 0.1 µM, first compound 0.000316 µM): 115%
viability, T/C (second compound 0.1 µM, first compound 0.001 µM): 99.8%
viability, T/C (second compound 0.1 µM, first compound 0.00316 µM): 100%
viability, T/C (second compound 0.1 µM, first compound 0.01 µM): 79.5%
viability, T/C [7]: 54.4%
viability, T/C [8]: 24.5%
viability, T/C (second compound 0.316 µM, first compound 0.000316 µM): 112%
viability, T/C (second compound 0.316 µM, first compound 0.001 µM): 113%
viability, T/C (second compound 0.316 µM, first compound 0.00316 µM): 99.2%
viability, T/C (second compound 0.316 µM, first compound 0.01 µM): 78.9%
viability, T/C [13]: 55.6%
viability, T/C [14]: 26.6%
viability, T/C (second compound 1 µM, first compound 0.000316 µM): 110%
viability, T/C (second compound 1 µM, first compound 0.001 µM): 103%
viability, T/C (second compound 1 µM, first compound 0.00316 µM): 107%
viability, T/C (second compound 1 µM, first compound 0.01 µM): 81.4%
viability, T/C [19]: 55.8%
viability, T/C [20]: 23.5%
viability, T/C (second compound 3.16 µM, first compound 0.000316 µM): 122%
viability, T/C (second compound 3.16 µM, first compound 0.001 µM): 114%
viability, T/C (second compound 3.16 µM, first compound 0.00316 µM): 102%
viability, T/C (second compound 3.16 µM, first compound 0.01 µM): 84.4%
viability, T/C [25]: 55.8%
viability, T/C [26]: 23.8%
viability, T/C (second compound 10 µM, first compound 0.000316 µM): 57.5%
viability, T/C (second compound 10 µM, first compound 0.001 µM): 47.7%
viability, T/C (second compound 10 µM, first compound 0.00316 µM): 46.7%
viability, T/C (second compound 10 µM, first compound 0.01 µM): 29.9%
viability, T/C [31]: 24.4%
viability, T/C [32]: 10.4%

IC50 (second compound 0.0316 µM): > 10000 nM
IC50 (second compound 0.1 µM): > 10000 nM
IC50 (second compound 0.316 µM): > 10000 nM
IC50 (second compound 1 µM): > 10000 nM
IC50 (second compound 3.16 µM): > 10000 nM
IC50 (second compound 10 µM): 89.7 nM
Compound: CC(Nc1ccc2c(c1)OCCn1cc(N3C(=O)OCC3C(F)F)nc1-2)C(N)=O (stereo unspecified) + C#Cc1c(F)ccc2cc(O)cc(-c3ncc4c(N5CC6CCC(C5)N6)nc(OCC56CCCN5CC(F)C6)nc4c3F)c12
viability, T/C [1]: 96.9%
viability, T/C [2]: 98.4%
viability, T/C [3]: 98.3%
viability, T/C [4]: 87.7%
viability, T/C [5]: 97.8%
viability, T/C [6]: 69.4%
viability, T/C [7]: 99.9%
viability, T/C [8]: 90%
viability, T/C [9]: 99.2%
viability, T/C [10]: 98.4%
viability, T/C [11]: 91.6%
viability, T/C [12]: 69.9%
viability, T/C [13]: 106%
viability, T/C [14]: 101%
viability, T/C [15]: 92.5%
viability, T/C [16]: 94.2%
viability, T/C [17]: 87.3%
viability, T/C [18]: 71.3%
viability, T/C [19]: 108%
viability, T/C [20]: 99.8%
viability, T/C [21]: 104%
viability, T/C [22]: 94.7%
viability, T/C [23]: 83.4%
viability, T/C [24]: 65.2%
viability, T/C [25]: 98.1%
viability, T/C [26]: 89.2%
viability, T/C [27]: 94.3%
viability, T/C [28]: 96.3%
viability, T/C [29]: 82.8%
viability, T/C [30]: 72.4%
viability, T/C [31]: 59.6%
viability, T/C [32]: 39.3%
viability, T/C [33]: 47.1%
viability, T/C [34]: 40.1%
viability, T/C [35]: 32%
viability, T/C [36]: 20.5%
